Test results: US7132547B2, “Preventives/remedies for urinary disturbance” (priority 2001, dated 2006)

Biological target: T1, human adrenaline α1A receptor (Homo sapiens, UniProt P35348)
T1 construct: expressed in transfected cells; membrane fraction
T1 sequence (P35348 1-466): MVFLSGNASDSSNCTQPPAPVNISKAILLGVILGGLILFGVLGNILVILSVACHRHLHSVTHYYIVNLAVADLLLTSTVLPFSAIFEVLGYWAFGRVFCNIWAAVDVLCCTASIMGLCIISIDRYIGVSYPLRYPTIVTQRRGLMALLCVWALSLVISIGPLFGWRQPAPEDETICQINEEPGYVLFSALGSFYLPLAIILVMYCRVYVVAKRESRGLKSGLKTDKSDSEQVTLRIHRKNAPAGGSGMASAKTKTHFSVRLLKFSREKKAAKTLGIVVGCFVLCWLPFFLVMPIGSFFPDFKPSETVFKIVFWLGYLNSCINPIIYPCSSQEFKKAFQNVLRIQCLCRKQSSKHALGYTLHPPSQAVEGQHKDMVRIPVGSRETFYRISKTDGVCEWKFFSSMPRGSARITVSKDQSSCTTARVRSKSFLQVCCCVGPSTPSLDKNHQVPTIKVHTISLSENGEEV
Experiment: Measurement of α1A receptor binding inhibitory activity ([3H]-Prazosin binding to CHO-K1 membrane fraction)
Settings: concentration reducing [3H]-Prazosin (2.5 nM) binding to the membrane fraction to 50%
Protocol: b) Measurement of α1A Receptor Binding Inhibitory Activity
The following gene manipulation method was carried out according to the method described in a textbook (Miniatis et al., Molecular Cloning, Cold Spring Harbor Laboratory, 1989) or the method described in protocol attached to a reagent.
(i) Preparation of Expression Plasmid for Human Adrenaline α1A Receptor
An adrenaline α1A receptor gene was cloned from a human liver cDNA by a PCR method. A PCR reaction was performed with Gene Amp PCR System 9700 (Applied Biosystems) using 200 ng of a human liver cDNA library (TAKARA SHUZO Co., Ltd.) as a template and using TaKaRa Pyrobest DNA Polymerase (TAKARA SHUZO CO., Ltd) and adding each 50 pmol of a primer set 5′-[…]-3′ [SEQ ID No.: 1] and 5′-[…]-3[SEQ ID No.: 2] prepared making reference to a nucleotide sequence of an adrenaline α1A receptor gene which was reported by Hirasawa A. et al. (Biochem. Biophys. Res. Commun., 195, 902–909(1993)) (reaction condition: 45 cycles of 15 seconds at 94° C., and 3 minutes 30 seconds at 68° C.).
The obtained PCR fragment was digested with restriction enzymes Eco RI (TAKARA SHUZO Co. Ltd.) and Sal I. (TAKARA SHUZO Co. Ltd.), and agarose gel electrophoresis was performed to recover DNA fragments. The DNA fragments were mixed with an animal cell expression plasmid pMSR αneo (Administration No. A99–0013) which had been digested with Eco RI and Sal I, ligated with DNA Ligation Kit Ver. 2 (TAKARA SHUZO Co. Ltd.), and a competent cell of Esherichia coli JM109 was transformed to obtain a plasmid pMSR αneoA dreα1A.
(ii) Introduction of Plasmid for Expression of Human Adrenaline α1A Receptor into CHO-K1 Cell and Preparation of Membrane Fraction
CHO-K1 cells which had been subcultured in a 150 cm^2 culturing flask (Corning Coaster) using Ham F12 medium (Invitrogen) containing 10% fetal bovine serum (TRACE SCIENTIFIC) was peeled with 0.5 g/L trypsin-0.2 g/L EDTA(Invitrogen), cells were washed with D-PBS(−) (Invitrogen), centrifuged (1000 rpm, 5 min.), and suspended in D-PBS(−). […]

## COc1ccccc1CCNCCCCCC(=O)c1cc2c3c(c1)CCN3C(=O)CC2.Cl [Example 20, 8-(6-[[2-(2-Methoxyphenyl)ethyl]amino]hexanoyl]-1,2,5,6-tetrahydro-4H-pyrrolo[3,2,1-ij]quinolin-4-one hydrochloride]
  IC50: 165 nM
